The assay concerns the target T1, CARM1 (co-activator associated arginine methyltransferase 1, PRMT4) (Homo sapiens, UniProt Q86X55).
T1 sequence (Q86X55 2-608): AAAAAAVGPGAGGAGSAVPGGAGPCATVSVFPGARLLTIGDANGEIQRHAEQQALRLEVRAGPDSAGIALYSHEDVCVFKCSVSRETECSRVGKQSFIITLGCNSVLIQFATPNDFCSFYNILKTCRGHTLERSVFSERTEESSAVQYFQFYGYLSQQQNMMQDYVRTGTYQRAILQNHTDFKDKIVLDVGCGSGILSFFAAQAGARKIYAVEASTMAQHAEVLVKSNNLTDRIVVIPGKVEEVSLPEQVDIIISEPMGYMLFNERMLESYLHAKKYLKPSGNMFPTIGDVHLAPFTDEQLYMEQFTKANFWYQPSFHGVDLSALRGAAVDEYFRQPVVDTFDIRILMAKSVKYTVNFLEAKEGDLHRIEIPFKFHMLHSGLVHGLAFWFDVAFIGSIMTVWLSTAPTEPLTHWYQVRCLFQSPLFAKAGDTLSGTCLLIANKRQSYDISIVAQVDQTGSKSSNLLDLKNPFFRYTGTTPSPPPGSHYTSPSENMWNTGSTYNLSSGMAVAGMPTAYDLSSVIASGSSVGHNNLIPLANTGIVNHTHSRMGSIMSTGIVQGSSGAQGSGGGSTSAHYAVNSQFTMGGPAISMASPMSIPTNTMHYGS
Put plainly: cellular CARM1 substrate methylation. It counts as cell-based.

Turning to `CNC[C@@H](O)COc1ccc(Cl)c(-c2nc(-c3c(C)noc3C)c(C)c(N3Cc4cnc(N5CCC5)nc4C3)n2)c1` [EPZ025654], the 50% inhibitory concentration (IC50) (in general, the concentration needed to halve the response being measured) worked out at 0.018 µM.
